Reference: patent publication US20120034193A1, “TREATMENT OF NEUROTROPHIC FACTOR MEDIATED DISORDERS” (priority 2009, published 2012)
Marks after values point to notes of the source that are not given here.

Experiments:
BDNF [1] = assay: BDNF protein in culture medium of rat cortical neurones exposed to β-amyloid; format: cell-based; conditions: 10 μM pre-incubation 48 h, then β-amyloid 10 μg/ml 48 h
Protocol: Rat cortical neurones were cultured by modification of a method previously described (Eckenstein and Sofroniew, Journal of Neuroscience, 1983, 3, pp. 2286-2291). On day 8, the culture medium was changed to a medium containing vehicle (DMSO, 0.5%) or smilagenin or sarsasapogenin (10 μM). On day 10, rat primary cortical neurones were exposed to β-amyloid (10 μg/ml) for 48 h at 37° C. and the concentration of BDNF in the culture medium, the number of choline acetyltransferase (ChAT) positive cells, and the neurite outgrowth was measured (smilagenin only).

BDNF mRNA = BDNF mRNA expression in rat cortical neurones under basal conditions (rt RT-PCR); format: cell-based; conditions: 30 nM
Protocol: (§1) Rat cortical neurones were cultured by modification of a method previously described (Singer, et al., Neuroscience Letters, 1996, 212, pp. 13-16). Twelve days after the start of culturing, sarsasapogenin (30 nM), smilagenin (30 nM), 4-methylcatechol (0.5 mM), an inducer of NGF and BDNF release (Saporito et al., Experimental Neurology., 1993, 123, pp. 295-302; Nitta et al., Journal of Pharmacology and Experimental Therapeutics, 1999, 291, pp. 1276-1283) or vehicle (dimethyl sulfoxide, DMSO, 0.25%) were added for 1, 3 or 6 h. After incubation the total messenger ribonucleic acid (mRNA) was quantified using real time reverse transcription-polymerase chain reaction (rt RT-PCR).

Rat cortical neurones = assay: Neuronal survival and neurite outgrowth of cortical neurones cultured in the absence of serum; format: cell-based; conditions: 30 nM, one day, no serum
Protocol: Rat cortical neurones were cultured following the method described above.
The test compounds were added for 24 h.
Rat cortical neurones were exposed to sarsasapogenin, smilagenin (30 nM) or vehicle (DMSO, 0.25%) in the absence FBS or FCS for one day. Cortical neurones were stained using a monoclonal antibody anti β-tubulin diluted and an anti mouse Immunoglobulin G diluted. These antibodies stained neurone cell bodies (quantifying the neuroprotective effect) and neurites (quantifying the neurotrophic effect). An epifluorecence microscope (magnification ×20) with a camera took 2 pictures per well (10 pictures per condition). Analyses of the number of cells labelled with anti β-tubulin antibodies and of the total number of cells was performed using LUCIA 6.0 software.

[2] = test system: Rat spinal motor neurones; assay: Neuronal survival and neurite outgrowth in spinal motor neurones; format: cell-based; conditions: 3 days
Protocol: Rat spinal motor neurones were prepared according to a previously described method (Martinou et al, Neuron, 8, 737-744, 1992). Following 3 days of culturing with sarsasapogenin, smilagenin, vehicle (DMSO, 0.25%), Xaliproden, or BDNF, spinal cord motor neurones were washed twice in PBS, fixed in a cold solution of alcohol (95%) and acetic acid (5%) for 5 min and then rinsed 3 times in PBS. Neurones were stained using a monoclonal antibody anti β-tubulin and an anti mouse Immunoglobulin G. These antibodies stained neurone cell bodies (quantifying the neuroprotective effect) and neurites (quantifying the neurotrophic effect). The cell nuclei were stained by a fluorescent marker. After 1 h of incubation, cells were washed 3 times in PBS. […] A series of pictures were taken using a camera controlled by computer software. All the images were taken under the same conditions. Analyses of the number of cells labelled with anti β-tubulin antibodies and of the total number of cells (number of stained nuclei) were performed using LUCIA 6.0 software.

[3] = test system: Rat dopaminergic neurones; assay: Pre-treatment against MPP+-induced loss of dopaminergic neurones; format: cell-based; conditions: 30 nM, 24 h before and during MPP+ 2 μM 48 h
Protocol: Rat dopaminergic neurones were cultured as previously described (Schinelli et al., Journal of Neurochemistry, 1988, 50, pp. 1900-1907). On day 5, the cultures were washed and placed in fresh medium containing test compounds (30 nM), vehicle (DMSO, 0.25%) or a combination of BDNF (1.85 nM) and GDNF (0.17 nM) for 24 h.
Exposure of rat primary dopaminergic neurones to MPP^+ (2 μM, 24 h) causes a significant decrease in the number of dopaminergic neurones compared to the control. On day 6, MPP^+ (2 μM) was added to the cultures in the presence of test compounds, vehicle or a combination of BDNF and GDNF for a further 48 h. MPP^+ induces neuronal death, via inhibition of complex I in the mitochondria and consequent ATP depletion, resulting in the production of free radicals and induction of apoptosis. After the incubation period, the cultures were fixed with paraformaldehyde in PBS (4%). After fixation, the neurones were permeabilised with Triton ×100 (0.05%) for 30 min. The neurones were then incubated with anti-tyrosine hydroxylase (TH) at 37° C. for 2 h. The neurones were washed three times with PBS, and then incubated with goat anti mouse/Cy3 for 2 h at 37° C. The neurones were mounted and examined with the fluorescence microscopy.

trkB mRNA = trkB mRNA expression in rat cortical neurones under basal conditions (rt RT-PCR); format: cell-based; conditions: 30 nM
Protocol: as §1

[4] = Tissue distribution after a single oral administration, rat; format: in vivo
BDNF [5] = assay: Brain BDNF in aged rats (ELISA); format: in vivo, Sprague Dawley (SD) rats; conditions: 18 mg/kg/day oral, 3 months, aged 1.21, young 1.65
Protocol: Old Sprague Dawley (SD) rats (20 month old) were orally administered sarsasapogenin or smilagenin (18 mg/kg/day) for 3 months. […] Young SD rats (4 month old) were used as healthy positive control. At the end of the treatment the brains removed for quantification of BDNF using an ELISA.

[6] = Rat F, 30 mg/kg single oral, 1 h
[7] = Rat F, 30 mg/kg single oral, 4 h
[8] = Rat F, 30 mg/kg single oral, 8 h
[9] = Rat F, 30 mg/kg single oral, 24 h
[10] = Rat F, 30 mg/kg single oral, 168 h
[11] = Rat M, 30 mg/kg single oral, 1 h
[12] = Rat M, 30 mg/kg single oral, 4 h
[13] = Rat M, 30 mg/kg single oral, 8 h
[14] = Rat M, 30 mg/kg single oral, 24 h
[15] = Rat M, 30 mg/kg single oral, 168 h
[16] = Rat F, 18 mg/kg single oral, 1 h
[17] = Rat F, 18 mg/kg single oral, 4 h
[18] = Rat F, 18 mg/kg single oral, 8 h
[19] = Rat F, 18 mg/kg single oral, 24 h
[20] = Rat F, 18 mg/kg single oral, 168 h
[21] = Rat M, 18 mg/kg single oral, 1 h
[22] = Rat M, 18 mg/kg single oral, 4 h
[23] = Rat M, 18 mg/kg single oral, 8 h
[24] = Rat M, 18 mg/kg single oral, 24 h
[25] = Rat M, 18 mg/kg single oral, 168 h

C[C@H]1CC[C@@]2(OC1)O[C@H]1C[C@H]3[C@@H]4CC[C@@H]5C[C@@H](O)CC[C@]5(C)[C@H]4CC[C@]3(C)[C@H]1[C@@H]2C [Sarsasapogenin, sarsasapogenin]
BDNF concentration (pg/ml) (BDNF [1]): 9.31 ± 0.15^++++,**** pg/ml
BDNF mRNA, % increase above control (BDNF mRNA; 1 h): No increase
BDNF mRNA, % increase above control (BDNF mRNA; 3 h): 22%
BDNF mRNA, % increase above control (BDNF mRNA; 6 h): No increase
Neurite outgrowth (% of control) (Rat cortical neurones): 152.85 ± 10.68 % of control
Neuronal survival (% of control) (Rat cortical neurones): 149.55 ± 6.22 % of control
Neurite outgrowth (% of control) ([2]; 30 nM): 129.98 ± 5.47 % of control
Neuronal survival (% of control) ([2]; 30 nM): 119.14 ± 3.33 % of control
Neurite outgrowth (% of control) ([2]; 100 nM): 137.38 ± 7.93 % of control
Neuronal survival (% of control) ([2]; 100 nM): 117.87 ± 3.63 % of control
Neuronal survival (% of control) [3]: 88.73 ± 4.39 % of control
trkB mRNA, % increase above control (trkB mRNA; 1 h): No increase
trkB mRNA, % increase above control (trkB mRNA; 3 h): 33%
trkB mRNA, % increase above control (trkB mRNA; 6 h): No increase
Concentration of compound, Brain [4, 6]: 1210 ng equivalents/g tissue
Concentration of compound, Plasma [4, 6]: 1530 ng equivalents/g tissue
Concentration of compound, Spinal cord [4, 6]: 3020 ng equivalents/g tissue
Concentration of compound, Brain [4, 7]: 3860 ng equivalents/g tissue
Concentration of compound, Plasma [4, 7]: 2050 ng equivalents/g tissue
Concentration of compound, Spinal cord [4, 7]: 3830 ng equivalents/g tissue
Concentration of compound, Brain [4, 8]: 5980 ng equivalents/g tissue
Concentration of compound, Plasma [4, 8]: 1760 ng equivalents/g tissue
Concentration of compound, Spinal cord [4, 8]: 5080 ng equivalents/g tissue
Concentration of compound, Brain [4, 9]: 2800 ng equivalents/g tissue
Concentration of compound, Plasma [4, 9]: 629 ng equivalents/g tissue
Concentration of compound, Spinal cord [4, 9]: 3290 ng equivalents/g tissue
Concentration of compound, Brain [4, 10]: 134 ng equivalents/g tissue
Concentration of compound, Plasma [4, 10]: 90 ng equivalents/g tissue
Concentration of compound, Spinal cord [4, 10]: 590 ng equivalents/g tissue
Concentration of compound, Brain [4, 11]: 1140 ng equivalents/g tissue
Concentration of compound, Plasma [4, 11]: 1690 ng equivalents/g tissue
Concentration of compound, Spinal cord [4, 11]: 1090 ng equivalents/g tissue
Concentration of compound, Brain [4, 12]: 4970 ng equivalents/g tissue
Concentration of compound, Plasma [4, 12]: 2920 ng equivalents/g tissue
Concentration of compound, Spinal cord [4, 12]: 4350 ng equivalents/g tissue
Concentration of compound, Brain [4, 13]: 6920 ng equivalents/g tissue
Concentration of compound, Plasma [4, 13]: 2970 ng equivalents/g tissue
Concentration of compound, Spinal cord [4, 13]: 6060 ng equivalents/g tissue
Concentration of compound, Brain [4, 14]: 3800 ng equivalents/g tissue
Concentration of compound, Plasma [4, 14]: 967 ng equivalents/g tissue
Concentration of compound, Spinal cord [4, 14]: 4720 ng equivalents/g tissue
Concentration of compound, Brain [4, 15]: 194 ng equivalents/g tissue
Concentration of compound, Plasma [4, 15]: 149 ng equivalents/g tissue
Concentration of compound, Spinal cord [4, 15]: 747 ng equivalents/g tissue
BDNF (ng/g tissue) (BDNF [5]): 1.41 ± 0.07 ng/g tissue

C[C@@H]1CC[C@@]2(OC1)O[C@H]1C[C@H]3[C@@H]4CC[C@@H]5C[C@@H](O)CC[C@]5(C)[C@H]4CC[C@]3(C)[C@H]1[C@@H]2C [Smilagenin, smilagenin]
BDNF concentration (pg/ml) (BDNF [1]): 4.20 ± 0.06****^,++++ pg/ml
BDNF mRNA, % increase above control (BDNF mRNA; 1 h): No increase
BDNF mRNA, % increase above control (BDNF mRNA; 3 h): 40%
BDNF mRNA, % increase above control (BDNF mRNA; 6 h): No increase
Neurite outgrowth (% of control) (Rat cortical neurones): 173.89 ± 9.23 % of control
Neuronal survival (% of control) (Rat cortical neurones): 155.36 ± 4.75 % of control
Neurite outgrowth (% of control) ([2]; 30 nM): 163.66 ± 9.28 % of control
Neuronal survival (% of control) ([2]; 30 nM): 120.11 ± 2.92 % of control
Neurite outgrowth (% of control) ([2]; 100 nM): 164.75 ± 5.57 % of control
Neuronal survival (% of control) ([2]; 100 nM): 121.21 ± 2.75 % of control
Neuronal survival (% of control) [3]: 97.91 ± 3.63 % of control
trkB mRNA, % increase above control (trkB mRNA; 1 h): 21%
trkB mRNA, % increase above control (trkB mRNA; 3 h): 55%
trkB mRNA, % increase above control (trkB mRNA; 6 h): No increase
Concentration of compound, Brain [4, 16]: 704 ng equivalents/g tissue
Concentration of compound, Plasma [4, 16]: 1626 ng equivalents/g tissue
Concentration of compound, Spinal cord [4, 16]: 608 ng equivalents/g tissue
Concentration of compound, Brain [4, 17]: 2330 ng equivalents/g tissue
Concentration of compound, Plasma [4, 17]: 1824 ng equivalents/g tissue
Concentration of compound, Spinal cord [4, 17]: 2049 ng equivalents/g tissue
Concentration of compound, Brain [4, 18]: 2940 ng equivalents/g tissue
Concentration of compound, Plasma [4, 18]: 1658 ng equivalents/g tissue
Concentration of compound, Spinal cord [4, 18]: 2823 ng equivalents/g tissue
Concentration of compound, Brain [4, 19]: 954 ng equivalents/g tissue
Concentration of compound, Plasma [4, 19]: 394 ng equivalents/g tissue
Concentration of compound, Spinal cord [4, 19]: 1284 ng equivalents/g tissue
Concentration of compound, Brain [4, 20]: 52 ng equivalents/g tissue
Concentration of compound, Plasma [4, 20]: 46 ng equivalents/g tissue
Concentration of compound, Spinal cord [4, 20]: 243 ng equivalents/g tissue
Concentration of compound, Brain [4, 21]: 769 ng equivalents/g tissue
Concentration of compound, Plasma [4, 21]: 2045 ng equivalents/g tissue
Concentration of compound, Spinal cord [4, 21]: 958 ng equivalents/g tissue
Concentration of compound, Brain [4, 22]: 3372 ng equivalents/g tissue
Concentration of compound, Plasma [4, 22]: 3842 ng equivalents/g tissue
Concentration of compound, Spinal cord [4, 22]: 3286 ng equivalents/g tissue
Concentration of compound, Brain [4, 23]: 4457 ng equivalents/g tissue
Concentration of compound, Plasma [4, 23]: 3896 ng equivalents/g tissue
Concentration of compound, Spinal cord [4, 23]: 4520 ng equivalents/g tissue
Concentration of compound, Brain [4, 24]: 1417 ng equivalents/g tissue
Concentration of compound, Plasma [4, 24]: 857 ng equivalents/g tissue
Concentration of compound, Spinal cord [4, 24]: 1957 ng equivalents/g tissue
Concentration of compound, Brain [4, 25]: 122 ng equivalents/g tissue
Concentration of compound, Plasma [4, 25]: 122 ng equivalents/g tissue
Concentration of compound, Spinal cord [4, 25]: 256 ng equivalents/g tissue
BDNF (ng/g tissue) (BDNF [5]): 1.34 ± 0.07 ng/g tissue
